{
  "source": "patent US20260263481A1",
  "about": "“COMPOSITION FOR TREATING OR PREVENTING KIDNEY DISEASES” (ORGANOIDSCIENCES LTD., priority 2022, published 2026)",
  "key": {"[1]": {"system": "human renal tubule cell line HK-2", "assay": "Reactive oxygen species (ROS) generation in HK-2 cells", "assay_type": "cell-based", "description": "After 48 hours of incubation, ROS generated in the HK-2 cells was analyzed.\nSpecifically, intracellular reactive oxygen species (ROS) levels were measured by fluorescence spectroscopy after treatment with bimatoprost and/or colistin. Saline containing 1% DMSO was used as a vehicle."}, "[2]": {"system": "human renal tubule cell line HK-2", "assay": "TUNEL assay for apoptosis in HK-2 cells", "assay_type": "cell-based", "description": "To evaluate the effect of PGF2α on kidney diseases, the influence of PGF2α on apoptosis in kidney cells induced by antibiotic treatment was assessed. Colistin, a type of antibiotic, is known to accumulate in proximal tubular cells and induce apoptosis by increasing the expression of the Fas death receptor or by increasing the generation of reactive oxygen species. […] After 48 hours of incubation, a TUNEL assay was conducted to assess apoptosis. Cells that tested positive in the TUNEL assay were considered apoptotic cells.\nSpecifically, a vehicle-treated group, a group treated with vehicle and colistin, and a group treated with bimatoprost and colistin were prepared. Apoptosis in HK-2 cells was analyzed using a TUNEL assay."}, "[3]": {"system": "human renal tubule cell line HK-2", "assay": "Cytotoxicity / cell viability assay in HK-2 cells", "description": "Specifically, the human renal tubule cell line HK-2 was treated with PGF2α at a concentration of 50 μM and with colistin at 400 μg/mL. In the case of pretreatment with PGF2α, colistin was treated 24 hours after treatment with PGF2α, and the cells were cultured for 48 hours, followed by an assay to evaluate cytotoxicity. In the case of co-treatment, PGF2α and colistin were treated simultaneously, and the cells were cultured for 48 hours, followed by the assay.\nSpecifically, bimatoprost was treated to human renal tubule cell line HK-2 at concentrations of 0.1 μM, 0.5 μM, 1.0 μM, 5.0 μM, 10 μM, 20 μM, and 50 μM, and the vehicle-treated group was used as a control. In the case of pretreatment with bimatoprost, colistin was treated 24 hours after bimatoprost treatment, followed by incubation for 48 hours and a cytotoxicity assay. In the case of co-treatment, bimatoprost and colistin were treated simultaneously, followed by 48 hours of incubation and the cytotoxicity assay."}, "C57BL/6N mice": {"system": "C57BL/6N mice", "assay": "Colistin-induced nephrotoxicity model in mice", "assay_type": "in vivo", "settings": "14 days", "description": "Specifically, a colistin-induced nephrotoxicity model was established using 6-week-old C57BL/6N mice. The control group (vehicle-treated group) was prepared by intraperitoneally injecting mice with vehicle (saline containing 1% DMSO) every 12 hours for 14 days. The colistin-treated group was prepared by intraperitoneally injecting colistin at 10 mg/kg every 12 hours for 14 days. The bimatoprost-treated group was prepared by intraperitoneally injecting bimatoprost at 1 mg/kg every 12 hours for 14 days. The bimatoprost and colistin co-treatment group was prepared by intraperitoneally injecting bimatoprost at 1 mg/kg and colistin at 10 mg/kg every 12 hours for 14 days. After 14 days of administration, tissue, blood, and kidneys were collected from the mice, and key indicators of kidney disease, including kidney color, body weight, blood urea nitrogen levels, blood creatinine levels, and expression of kidney injury marker-1 (KIM-1), were analyzed."}, "Escherichia coli": {"system": "Escherichia coli", "assay": "Paper disk antibacterial activity on LB medium", "assay_type": "cell-based", "settings": "24 hours; for growth of E. coli: substance alone on paper disk", "description": "Specifically, Escherichia coli, a Gram-negative bacterium, was spread onto an LB medium, and paper disks were treated with bimatoprost and/or colistin. Saline containing 1% DMSO was used as a vehicle. After placing the paper disks onto the LB medium, incubation was carried out for 24 hours."}, "[4]": {"settings": "PGF2α 50 μM co-treated with colistin 400 μg/mL, 48 hours"}, "[5]": {"settings": "bimatoprost 1 mg/kg + colistin 10 mg/kg i.p. every 12 hours"}, "[6]": {"settings": "colistin 10 mg/kg i.p. every 12 hours"}},
  "data": [
    {"molecule": "CCCCC[C@H](O)/C=C/[C@@H]1[C@@H](C/C=C\\CCCC(=O)O)[C@@H](O)C[C@H]1O", "note": "[PGF2α, prostaglandin F2α]", "values": [
      {"measurement": "reduction of colistin-induced increase in ROS", "setting": "[1]; [4]", "result": "approximately 1.5 fold"},
      {"measurement": "ROS levels", "setting": "[1]; PGF2α alone, 50 μM, 48 hours", "result": "decreased"},
      {"measurement": "colistin-induced increase in apoptosis", "setting": "[2]; [4]", "result": "reduced by about half"}
    ]},
    {"molecule": "CCNC(=O)CCC/C=C\\C[C@@H]1[C@@H](/C=C/[C@@H](O)CCc2ccccc2)[C@H](O)C[C@@H]1O", "note": "[bimatoprost]", "values": [
      {"measurement": "extent of cell death induced by colistin compared to cells not treated with bimatoprost", "setting": "[3]; bimatoprost pretreated at 10 μM", "result": "reduced by approximately fourfold"},
      {"measurement": "effect on colistin-induced cell death", "setting": "[3]; bimatoprost pretreatment 24 hours before colistin, then 48 hours", "result": "reduced colistin-induced cell death"},
      {"measurement": "colistin-induced increase in ROS", "setting": "[1]; bimatoprost and colistin, level similar to vehicle-treated group", "result": "reduced to approximately half"},
      {"measurement": "KIM-1 area compared to the colistin-treated group", "setting": "C57BL/6N mice; [5]", "result": "reduced by about eight times"},
      {"measurement": "KIM-1 expression in kidney", "setting": "C57BL/6N mice; [5]", "result": "barely observed"},
      {"measurement": "blood creatinine levels", "setting": "C57BL/6N mice; [5]", "result": "lower than those in the colistin-treated group"},
      {"measurement": "blood urea nitrogen levels", "setting": "C57BL/6N mice; [5]", "result": "lower than those in the colistin-treated group"},
      {"measurement": "body weight", "setting": "C57BL/6N mice; [5]", "result": "weight loss was not observed"},
      {"measurement": "kidney color", "setting": "C57BL/6N mice; [5]", "result": "recovered to a level similar to that of the vehicle-treated group"},
      {"measurement": "inhibitory effect on E. coli growth", "setting": "Escherichia coli; colistin and bimatoprost together on paper disk", "result": "at the same level as that observed in the group treated with colistin alone"},
      {"measurement": "growth of E. coli", "setting": "Escherichia coli", "result": "not inhibited"},
      {"measurement": "number of apoptotic cells compared to the group treated with vehicle and colistin", "setting": "[2]; bimatoprost and colistin co-treated", "result": "reduced by approximately threefold"}
    ]},
    {"molecule": "colistin", "values": [
      {"measurement": "cells survived compared to those not treated with colistin", "setting": "[3]; colistin 400 μg/mL, 48 hours", "result": "about 50%"},
      {"measurement": "ROS levels compared to cells not treated with colistin", "setting": "[1]; colistin 400 μg/mL, 48 hours (Example 1-3)", "result": "more than fivefold"},
      {"measurement": "increase in ROS levels compared to the vehicle-treated group", "setting": "[1]; colistin-treated group (Example 2-3), fluorescence spectroscopy", "result": "more than 2.5 fold"},
      {"measurement": "KIM-1 expression in kidney", "setting": "C57BL/6N mice; [6]", "result": "clearly observed"},
      {"measurement": "blood creatinine levels relative to vehicle-treated group", "setting": "C57BL/6N mice; [6]", "result": "approximately 1.5 times"},
      {"measurement": "blood urea nitrogen levels relative to vehicle-treated group", "setting": "C57BL/6N mice; [6]", "result": "approximately 1.5 times"},
      {"measurement": "body weight", "setting": "C57BL/6N mice; [6]", "result": "reduction in body weight after day 6"},
      {"measurement": "kidney color", "setting": "C57BL/6N mice; [6]", "result": "became paler"},
      {"measurement": "growth of E. coli", "setting": "Escherichia coli", "result": "markedly suppressed"},
      {"measurement": "increase in apoptosis compared to cells not treated with colistin", "setting": "[2]; colistin 400 μg/mL, 48 hours", "result": "approximately 30%"},
      {"measurement": "apoptotic cells (TUNEL)", "setting": "[2]; vehicle and colistin vs vehicle-treated group (Example 2-2)", "result": "significant increase in apoptotic cells"}
    ]}
  ]
}
